Test results published in ChEMBL document CHEMBL4665836, “Overcoming β-Lactam resistance in Pseudomonas aeruginosa using non-canonical tobramycin-based antibiotic adjuvants” (2020).

Columns and labels:
Format in all cases: functional
Pseudomonas aeruginosa [1] = assay: Potentiation of imipenem-induced antibacterial activity against carbapenem-resistant Pseudomonas aeruginosa 107092 clinical isolate assessed as imipenem MIC at 8 uM by checkerboard assay (reference value: 64 ug/ml)
Pseudomonas aeruginosa [2] = assay: Antibacterial activity against wild type Pseudomonas aeruginosa PAO1
Pseudomonas aeruginosa [3] = assay: Potentiation of imipenem-induced antibacterial activity against carbapenem-resistant Pseudomonas aeruginosa PAO200 harboring mexAB-oprM efflux deficient mutant assessed as imipenem MIC at 8 uM by checkerboard assay (reference value: 4 ug/ml)
Pseudomonas aeruginosa [4] = assay: Potentiation of ceftazidime-induced antibacterial activity against carbapenem-resistant Pseudomonas aeruginosa 109084 clinical isolate assessed as fold reduction in ceftazidime MIC at 8 uM in presence of beta-lactamase inhibitor, avi-bactam
Pseudomonas aeruginosa [5] = assay: Potentiation of aztreonam-induced antibacterial activity against wild type Pseudomonas aeruginosa PAO1 assessed as aztreonam MIC at 8 uM by checkerboard assay (reference value: 4 ug/ml)
Pseudomonas aeruginosa [6] = assay: Potentiation of ceftazidime-induced antibacterial activity against carbapenem-resistant Pseudomonas aeruginosa 107092 clinical isolate assessed as ceftazidime MIC at 8 uM by checkerboard assay (reference value: 128 ug/ml)
Pseudomonas aeruginosa [7] = assay: Potentiation of ceftazidime-induced antibacterial activity against carbapenem-resistant Pseudomonas aeruginosa 88949 clinical isolate assessed as fold reduction in ceftazidime MIC at 8 uM in presence of beta-lactamase inhibitor, avi-bactam
Pseudomonas aeruginosa [8] = assay: Potentiation of ceftazidime-induced antibacterial activity against carbapenem-resistant Pseudomonas aeruginosa 88949 clinical isolate assessed as ceftazidime MIC at 8 uM by checkerboard assay (reference value: 64 ug/ml)
Pseudomonas aeruginosa [9] = assay: Potentiation of imipenem-induced antibacterial activity against wild type Pseudomonas aeruginosa PAO1 assessed as fold reduction in imipenem MIC at 8 uM
Pseudomonas aeruginosa [10] = assay: Potentiation of ceftazidime-induced antibacterial activity against wild type Pseudomonas aeruginosa PAO1 assessed as fold reduction in ceftazidime MIC at 8 uM
Pseudomonas aeruginosa [11] = assay: Potentiation of imipenem-induced antibacterial activity against carbapenem-resistant Pseudomonas aeruginosa 86052 clinical isolate assessed as imipenem MIC at 8 uM by checkerboard assay (reference value: 32 ug/ml)
Pseudomonas aeruginosa [12] = assay: Potentiation of aztreonam-induced antibacterial activity against carbapenem-resistant Pseudomonas aeruginosa 101885 clinical isolate assessed as aztreonam MIC at 8 uM by checkerboard assay (reference value: 16 ug/ml)
Pseudomonas aeruginosa [13] = assay: Potentiation of aztreonam-induced antibacterial activity against carbapenem-resistant Pseudomonas aeruginosa PAO200 harboring mexAB-oprM efflux deficient mutant assessed as aztreonam MIC at 8 uM by checkerboard assay (reference value: 0.25 ug/ml)
Pseudomonas aeruginosa [14] = assay: Potentiation of aztreonam-induced antibacterial activity against carbapenem-resistant Pseudomonas aeruginosa 262-101856 clinical isolate assessed as aztreonam MIC at 8 uM by checkerboard assay (reference value: 32 ug/ml)
Pseudomonas aeruginosa [15] = assay: Potentiation of aztreonam-induced antibacterial activity against carbapenem-resistant Pseudomonas aeruginosa 260-97103 clinical isolate assessed as aztreonam MIC at 8 uM by checkerboard assay (reference value: 64 ug/ml)
Pseudomonas aeruginosa [16] = assay: Potentiation of ceftazidime-induced antibacterial activity against carbapenem and colistin-resistant Pseudomonas aeruginosa 91433 clinical isolate assessed as ceftazidime MIC at 8 uM by checkerboard assay (reference value: 4 ug/ml)
Pseudomonas aeruginosa [17] = assay: Potentiation of ceftazidime-induced antibacterial activity against carbapenem-resistant Pseudomonas aeruginosa 108590 clinical isolate assessed as fold reduction in ceftazidime MIC at 8 uM in presence of beta-lactamase inhibitor, avi-bactam
Pseudomonas aeruginosa [18] = assay: Potentiation of imipenem-induced antibacterial activity against carbapenem-resistant Pseudomonas aeruginosa 259-96918 clinical isolate expressing MBL assessed as imipenem MIC at 8 uM by checkerboard assay (reference value: 64 ug/ml)
Pseudomonas aeruginosa [19] = assay: Potentiation of imipenem-induced antibacterial activity against carbapenem-resistant Pseudomonas aeruginosa 108590 clinical isolate assessed as fold reduction in imipenem MIC at 8 uM in presence of beta-lactamase inhibitor, rele-bactam
Pseudomonas aeruginosa [20] = assay: Potentiation of imipenem-induced antibacterial activity against carbapenem-resistant Pseudomonas aeruginosa 107092 clinical isolate assessed as fold reduction in imipenem MIC at 8 uM in presence of beta-lactamase inhibitor, rele-bactam
Pseudomonas aeruginosa [21] = assay: Potentiation of ceftazidime-induced antibacterial activity against carbapenem-resistant Pseudomonas aeruginosa PAO200 harboring mexAB-oprM efflux deficient mutant assessed as ceftazidime MIC at 8 uM by checkerboard assay (reference value: 1 ug/ml)
Pseudomonas aeruginosa [22] = assay: Potentiation of ceftazidime-induced antibacterial activity against carbapenem-resistant Pseudomonas aeruginosa 262-101856 clinical isolate assessed as ceftazidime MIC at 8 uM by checkerboard assay (reference value: 16 ug/ml)
Pseudomonas aeruginosa [23] = assay: Potentiation of aztreonam-induced antibacterial activity against carbapenem-resistant Pseudomonas aeruginosa 109084 clinical isolate assessed as aztreonam MIC at 8 uM by checkerboard assay (reference value: 64 ug/ml)
Pseudomonas aeruginosa [24] = assay: Potentiation of imipenem-induced antibacterial activity against carbapenem and colistin-resistant Pseudomonas aeruginosa 91433 clinical isolate assessed as imipenem MIC at 8 uM by checkerboard assay (reference value: 8 ug/ml)
Pseudomonas aeruginosa [25] = assay: Potentiation of ceftazidime-induced antibacterial activity against wild type Pseudomonas aeruginosa PAO1 assessed as ceftazidime MIC at 8 uM by checkerboard assay (reference value: 2 ug/ml)
Pseudomonas aeruginosa [26] = assay: Potentiation of aztreonam-induced antibacterial activity against wild type Pseudomonas aeruginosa PAO1 assessed as fold reduction in aztreonam MIC at 8 uM
Pseudomonas aeruginosa [27] = assay: Potentiation of aztreonam-induced antibacterial activity against carbapenem-resistant Pseudomonas aeruginosa 109084 clinical isolate assessed as fold reduction in aztreonam MIC at 8 uM in presence of beta-lactamase inhibitor, avi-bactam
Pseudomonas aeruginosa [28] = assay: Potentiation of aztreonam-induced antibacterial activity against carbapenem-resistant Pseudomonas aeruginosa PAO750 harboring mexAB-oprM/mexCD-oprJ/mexEF-oprN/mexJK/mexXY/opmH efflux deficient mutant assessed as aztreonam MIC at 8 uM by checkerboard assay (reference value: 0.5 ug/ml)
Pseudomonas aeruginosa [29] = assay: Potentiation of ceftazidime-induced antibacterial activity against carbapenem-resistant Pseudomonas aeruginosa 109084 clinical isolate assessed as ceftazidime MIC at 8 uM by checkerboard assay (reference value: 64 ug/ml)
Pseudomonas aeruginosa [30] = assay: Potentiation of ceftazidime-induced antibacterial activity against carbapenem-resistant Pseudomonas aeruginosa 108590 clinical isolate assessed as ceftazidime MIC at 8 uM by checkerboard assay (reference value: 32 ug/ml)
Pseudomonas aeruginosa [31] = assay: Potentiation of aztreonam-induced antibacterial activity against carbapenem-resistant Pseudomonas aeruginosa 86052 clinical isolate assessed as aztreonam MIC at 8 uM by checkerboard assay (reference value: 64 ug/ml)
Pseudomonas aeruginosa [32] = assay: Potentiation of imipenem-induced antibacterial activity against carbapenem-resistant Pseudomonas aeruginosa 108590 clinical isolate assessed as imipenem MIC at 8 uM by checkerboard assay (reference value: 16 ug/ml)
Pseudomonas aeruginosa [33] = assay: Potentiation of imipenem-induced antibacterial activity against carbapenem-resistant Pseudomonas aeruginosa PAO750 harboring mexAB-oprM/mexCD-oprJ/mexEF-oprN/mexJK/mexXY/opmH efflux deficient mutant assessed as imipenem MIC at 8 uM by checkerboard assay (reference value: 4 ug/ml)

SMILES | MIC (Pseudomonas aeruginosa [1]) [µg/mL] | MIC (Pseudomonas aeruginosa [2]) [µg/mL] | MIC (Pseudomonas aeruginosa [3]) [µg/mL] | fold change (FC) (Pseudomonas aeruginosa [4]) | MIC (Pseudomonas aeruginosa [5]) [µg/mL] | MIC (Pseudomonas aeruginosa [6]) [µg/mL] | fold change (FC) (Pseudomonas aeruginosa [7]) | MIC (Pseudomonas aeruginosa [8]) [µg/mL] | fold change (FC) (Pseudomonas aeruginosa [9]) | fold change (FC) (Pseudomonas aeruginosa [10]) | MIC (Pseudomonas aeruginosa [11]) [µg/mL] | fold change (FC) (Pseudomonas aeruginosa [17]) | MIC (Pseudomonas aeruginosa [18]) [µg/mL] | fold change (FC) (Pseudomonas aeruginosa [19]) | fold change (FC) (Pseudomonas aeruginosa [20]) | MIC (Pseudomonas aeruginosa [24]) [µg/mL] | fold change (FC) (Pseudomonas aeruginosa [26]) | fold change (FC) (Pseudomonas aeruginosa [27]) | MIC (Pseudomonas aeruginosa [32]) [µg/mL] | MIC (Pseudomonas aeruginosa [33]) [µg/mL] | other results
NC[C@H]1O[C@H](O[C@H]2[C@H](OCCCCc3cn(CCCCO[C@@H]4[C@@H](O[C@H]5O[C@H](CO)[C@@H](O)[C@H](N)[C@H]5O)[C@H](N)C[C@H](N)[C@H]4O[C@H]4O[C@H](CN)[C@@H](O)C[C@H]4N)nn3)[C@@H](O[C@H]3O[C@H](CO)[C@@H](O)[C@H](N)[C@H]3O)[C@H](N)C[C@@H]2N)[C@H](N)C[C@@H]1O.O=C(O)C(F)(F)F.O=C(O)C(F)(F)F.O=C(O)C(F)(F)F.O=C(O)C(F)(F)F.O=C(O)C(F)(F)F.O=C(O)C(F)(F)F.O=C(O)C(F)(F)F.O=C(O)C(F)(F)F.O=C(O)C(F)(F)F.O=C(O)C(F)(F)F | 16 | > 128 | 1 | 16 | 0.25 | 32 | 16 | 16 | 2 | 2 | 16 | 16 | 32 | 16 | 16 | 4 | 2 | 16 | 4 | 1 | MIC (Pseudomonas aeruginosa [12]): 4 µg/mL; MIC (Pseudomonas aeruginosa [13]): 0.03 µg/mL; MIC (Pseudomonas aeruginosa [14]): 8 µg/mL; MIC (Pseudomonas aeruginosa [15]): 16 µg/mL; MIC (Pseudomonas aeruginosa [16]): 1 µg/mL; MIC (Pseudomonas aeruginosa [21]): 0.13 µg/mL; MIC (Pseudomonas aeruginosa [22]): 2 µg/mL; MIC (Pseudomonas aeruginosa [23]): 8 µg/mL; MIC (Pseudomonas aeruginosa [25]): 0.25 µg/mL; MIC (Pseudomonas aeruginosa [28]): 0.06 µg/mL; MIC (Pseudomonas aeruginosa [29]): 32 µg/mL; MIC (Pseudomonas aeruginosa [30]): 8 µg/mL; MIC (Pseudomonas aeruginosa [31]): 8 µg/mL
Cl.Cl.Cl.Cl.Cl.NC[C@H]1O[C@H](O[C@H]2[C@H](OCCCCCCCCCCCCN3CCN(c4cc5c(cc4F)c(=O)c(C(=O)O)cn5C4CC4)CC3)[C@@H](O)[C@H](N)C[C@@H]2N)[C@H](N)C[C@@H]1O | 16 | 32 | 1 | 16 | 0.5 | 64 | 16 | 32 | 2 | 2 | 4 | 16 | 16 | 16 | 16 | 8 | 2 | 16 | 0.5 | 2 | MIC (Pseudomonas aeruginosa [12]): 4 µg/mL; MIC (Pseudomonas aeruginosa [13]): 0.03 µg/mL; MIC (Pseudomonas aeruginosa [14]): 16 µg/mL; MIC (Pseudomonas aeruginosa [15]): 0.25 µg/mL; MIC (Pseudomonas aeruginosa [16]): 0.5 µg/mL; MIC (Pseudomonas aeruginosa [21]): 0.13 µg/mL; MIC (Pseudomonas aeruginosa [22]): 4 µg/mL; MIC (Pseudomonas aeruginosa [23]): 32 µg/mL; MIC (Pseudomonas aeruginosa [25]): 0.25 µg/mL; MIC (Pseudomonas aeruginosa [28]): 0.13 µg/mL; MIC (Pseudomonas aeruginosa [29]): 32 µg/mL; MIC (Pseudomonas aeruginosa [30]): 1 µg/mL; MIC (Pseudomonas aeruginosa [31]): 4 µg/mL
Cl.Cl.Cl.Cl.Cl.Cl.NC[C@H]1O[C@H](O[C@H]2[C@H](OCCCCCCCCCCCCN3CCN(c4cc5c(cc4F)c(=O)c(C(=O)O)cn5C4CC4)CC3)[C@@H](O[C@H]3O[C@H](CO)[C@@H](O)[C@H](N)[C@H]3O)[C@H](N)C[C@@H]2N)[C@H](N)C[C@@H]1O | 8 | 32 | 1 | 16 | 0.25 | 16 | 16 | 32 | 2 | 2 | 8 | 16 | 16 | 16 | 16 | 2 | 2 | 16 | 0.25 | 0.5 | MIC (Pseudomonas aeruginosa [12]): 1 µg/mL; MIC (Pseudomonas aeruginosa [13]): 0.03 µg/mL; MIC (Pseudomonas aeruginosa [14]): 4 µg/mL; MIC (Pseudomonas aeruginosa [15]): 4 µg/mL; MIC (Pseudomonas aeruginosa [16]): 2 µg/mL; MIC (Pseudomonas aeruginosa [21]): 0.06 µg/mL; MIC (Pseudomonas aeruginosa [22]): 4 µg/mL; MIC (Pseudomonas aeruginosa [23]): 16 µg/mL; MIC (Pseudomonas aeruginosa [25]): 0.25 µg/mL; MIC (Pseudomonas aeruginosa [28]): 0.06 µg/mL; MIC (Pseudomonas aeruginosa [29]): 16 µg/mL; MIC (Pseudomonas aeruginosa [30]): 0.5 µg/mL; MIC (Pseudomonas aeruginosa [31]): 8 µg/mL
NC[C@H]1O[C@H](O[C@H]2[C@H](OCCCCCCCCN3CCCNCCNCCCNCC3)[C@@H](O[C@H]3O[C@H](CO)[C@@H](O)[C@H](N)[C@H]3O)[C@H](N)C[C@@H]2N)[C@H](N)C[C@@H]1O.O=C(O)C(F)(F)F.O=C(O)C(F)(F)F.O=C(O)C(F)(F)F.O=C(O)C(F)(F)F.O=C(O)C(F)(F)F.O=C(O)C(F)(F)F.O=C(O)C(F)(F)F.O=C(O)C(F)(F)F.O=C(O)C(F)(F)F | 16 | > 128 | 2 | 16 |  |  | 16 |  | 2 | 2 | 16 | 16 | 64 | 16 | 16 | 8 | 2 | 16 | 16 | 2 | 
NC[C@H]1O[C@H](O[C@H]2[C@H](OCCCCCCCCN3CCCNCCNCCCNCC3)[C@@H](O)[C@H](N)C[C@@H]2N)[C@H](N)C[C@@H]1O.O=C(O)C(F)(F)F.O=C(O)C(F)(F)F.O=C(O)C(F)(F)F.O=C(O)C(F)(F)F.O=C(O)C(F)(F)F.O=C(O)C(F)(F)F.O=C(O)C(F)(F)F.O=C(O)C(F)(F)F | 32 | > 128 | 2 | 16 | 0.5 | 32 | 16 | 64 | 2 | 2 | 16 | 16 | 32 | 16 | 16 | 4 | 2 | 16 | 16 | 4 | MIC (Pseudomonas aeruginosa [12]): 4 µg/mL; MIC (Pseudomonas aeruginosa [13]): 0.06 µg/mL; MIC (Pseudomonas aeruginosa [14]): 8 µg/mL; MIC (Pseudomonas aeruginosa [15]): 8 µg/mL; MIC (Pseudomonas aeruginosa [16]): 2 µg/mL; MIC (Pseudomonas aeruginosa [21]): 0.13 µg/mL; MIC (Pseudomonas aeruginosa [22]): 16 µg/mL; MIC (Pseudomonas aeruginosa [23]): 32 µg/mL; MIC (Pseudomonas aeruginosa [25]): 0.5 µg/mL; MIC (Pseudomonas aeruginosa [28]): 0.13 µg/mL; MIC (Pseudomonas aeruginosa [29]): 32 µg/mL; MIC (Pseudomonas aeruginosa [30]): 16 µg/mL; MIC (Pseudomonas aeruginosa [31]): 64 µg/mL
